Experiment [1] concerns the target T1, recombinant human FLAP protein (Homo sapiens, UniProt P20292).
T1 construct: made in house; host or cells: Sf9 insect cells (100,000×g membrane pellet used)
T1 sequence (P20292 1-161): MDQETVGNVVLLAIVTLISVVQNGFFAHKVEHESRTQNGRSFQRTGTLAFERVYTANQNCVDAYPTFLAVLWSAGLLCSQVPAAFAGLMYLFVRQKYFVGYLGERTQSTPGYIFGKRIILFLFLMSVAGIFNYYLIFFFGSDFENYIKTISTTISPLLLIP
The experiment can be described thus: FLAP binding assay (SPA, displacement of [125I]L-691,831). In outline: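 Membranes from sf9 cells expressing human FLAP in pH 7.5 Tris buffer (MgCl2, EDTA, PMSF). Non-specific binding defined with 10 μM cold L-691,831.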
On the technique in general: Displacement assays read how much labelled ligand stays bound in the presence of the test substance.

In experiment [2] the test system is synthesis of LTB4 in human whole blood. The experiment can be described thus: Human whole blood assay (inhibition of LTB4 synthesis, calcimycin stimulated). The format is cell-based. The settings on record: heparinized human whole blood, calcimycin 20 μM, plasma LTB4. In outline: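 LTB4 levels in plasma were measured by antibody-based HTRF after heparinized human whole blood, pretreated with compound (15 min, 37° C), was challenged with 20 μM calcimycin for 30 min at 37° C.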

Where [3] appears, read: membranes of sf9 cells expressing recombinant human FLAP, [125I]L-691,831 probe, read-out: FLAP binding IC50.

Our source for the IC50 values is US8658661B2, “Oxadiazole inhibitors of leukotriene production” (Boehringer Ingelheim International GmbH, priority 2010, dated 2014).

The structures appear in SMILES notation. Like-named read-outs stand apart in the source and are kept apart here.

By IC50 is commonly meant the concentration at which inhibition is half-maximal.

As for `CC(C)C(C)(c1ccc(-c2cnc(N)nc2)cc1)c1noc(N2CCC(CO)CC2)n1` (stereo not drawn) [Example 209, [1-(3-{1-[4-(2-Amino-pyrimidin-5-yl)-phenyl]-1,2-dimethyl-propyl}-[1,2,4]oxadiazol-5-yl)-piperidin-4-yl]-methanol], the IC50 in experiment [1] (setting [3]) is 8.2 nM; in experiment [2] it was 100 nM.
For `C[C@@](c1ccc(-c2cnc(N)cn2)cc1)(c1noc(-c2cnc(N3CCNCC3)cn2)n1)C1CC1` [Example 195, 5-(4-{(R)-1-Cyclopropyl-1-[5-(3,4,5,6-tetrahydro-2H-[1,2′]bipyrazinyl-5′-yl)-[1,2,4]oxadiazol-3-yl]-ethyl}-phenyl)-pyrazin-2-ylamine], the values for the IC50 in experiment [1] (setting [3]) and in experiment [2] were 4.6 nM and 280 nM, respectively.
The corresponding values for `C[C@@](c1ccc(-c2cnc(N)nc2)cc1)(c1noc(-c2cnn(CCN3CCCC3)c2)n1)C1CC1` [Example 215, 5-[4-((R)-1-Cyclopropyl-1-{5-[1-(2-pyrrolidin-1-yl-ethyl)-1H-pyrazol-4-yl]-[1,2,4]oxadiazol-3-yl}-ethyl)-phenyl]-pyrimidin-2-ylamine] are 3.6 nM and 28 nM.
The matching figures for `COCCn1cc(-c2nc([C@@](C)(c3ccc(-c4cnc(N)nc4)cc3)C3CCC3)no2)cn1` [Example 100, 5-{4-[(1R)-1-cyclobutyl-1-{5-[1-(2-methoxyethyl)-1H-pyrazol-4-yl]-1,2,4-oxadiazol-3-yl}ethyl]phenyl}pyrimidin-2-amine]: 2.3 nM and 110 nM.
The matching figures for `CC(C)C(C)(c1ccc(-c2cnc(N)nc2)cc1)c1noc(C2CCN(C(=O)OC(C)(C)C)CC2)n1` (stereo not drawn) [Example 109, 4-(3-{1-[4-(2-Amino-pyrimidin-5-yl)-phenyl]-1,2-dimethyl-propyl}-1,2,4-oxadiazol-5-yl)-piperidine-1-carboxylic acid tert-butyl ester]: 46 nM and 1500 nM.
For `CC(C)C(C)(c1ccc(-c2cnc(N)nc2)cc1)c1noc(C2CCOCC2)n1` (stereo not drawn) [Example 138, 5-(4-{3-methyl-2-[5-(tetrahydro-2H-pyran-4-yl)-1,2,4-oxadiazol-3-yl]butan-2-yl}phenyl)pyrimidin-2-amine], the figures for the IC50 in experiment [1] (setting [3]) and in experiment [2] were 15 nM and 760 nM, respectively.
Regarding `CC(C)C(C)(c1ccc(-c2cnc(N)nc2)cc1)c1noc(N2CCNCC2)n1` (stereo not drawn) [Example 83, 5-(4-{3-methyl-2-[5-(piperazin-1-yl)-1,2,4-oxadiazol-3-yl]butan-2-yl}phenyl)pyrimidin-2-amine], the IC50 in experiment [1] (setting [3]) was found to be 26 nM; in experiment [2] it was 1100 nM.
For the molecule `CNc1ccc(-c2ccc(C(C)(c3noc(-c4cnn(CC(=O)N(C)C)c4)n3)C3CC3)cc2)cn1` (stereo not drawn) [Example 251, 2-[4-(3-{1-Cyclopropyl-1-[4-(6-methylamino-pyridin-3-yl)-phenyl]-ethyl}-[1,2,4]oxadiazol-5-yl)-pyrazol-1-yl]-N,N-dimethyl-acetamide], the IC50 in experiment [1] (setting [3]) worked out at 9.1 nM; in experiment [2] it was 130 nM.
The corresponding values for `CC(C)C(C)(c1ccc(-c2cnc(N)nc2)cc1)c1noc(-c2ccn(C)n2)n1` (stereo not drawn) [Example 14, 5-(4-{3-methyl-2-[5-(1-methyl-1H-pyrazol-3-yl)-1,2,4-oxadiazol-3-yl]butan-2-yl}phenyl)pyrimidin-2-amine] are 4.6 nM and 140 nM.
The matching figures for `CC(C)C(C)(c1ccc(-c2cnc(N)nc2)cc1)c1noc(-c2cnn(CC(=O)N(C)C)c2)n1` (stereo not drawn) [Example 106, 2-[4-(3-{2-[4-(2-aminopyrimidin-5-yl)phenyl]-3-methylbutan-2-yl}-1,2,4-oxadiazol-5-yl)-1H-pyrazol-1-yl]-N,N-dimethylacetamide]: 4.8 nM and 76 nM.
The matching figures for `COCCn1cc(-c2nc([C@](C)(c3ccc(-c4cnc(N)nc4)cc3)C(C)C)no2)cn1` [Example 64, 5-{4-[(2S)-2-{5-[1-(2-methoxyethyl)-1H-pyrazol-4-yl]-1,2,4-oxadiazol-3-yl}-3-methylbutan-2-yl]phenyl}pyrimidin-2-amine]: 16 nM and 410 nM.
As to `CC(C)C(C)(c1ccc(-c2cnc(N)nc2)cc1)c1noc(-c2ccccc2)n1` (stereo not drawn) [Example 2, 5-{4-[3-methyl-2-(5-phenyl-1,2,4-oxadiazol-3-yl)butan-2-yl]phenyl}pyrimidin-2-amine], the IC50 in experiment [1] (setting [3]) was 5.1 nM; in experiment [2] it was 680 nM.
The corresponding values for `CN(C)C(=O)Cn1cc(-c2nc([C@@](C)(c3ccc(-c4cnc(N)nc4)cc3)C3CC3)no2)cn1` (single isomer, unassigned) [Example 115] are 1.9 nM and 58 nM.
The corresponding values for `COCCn1cc(-c2nc([C@@](C)(c3ccc(-c4cnc(N)c(C)c4)cc3)C3CC3)no2)cn1` [Example 188, 5-[4-((R)-1-Cyclopropyl-1-{5-[1-(2-methoxy-ethyl)-1H-pyrazol-4-yl]-[1,2,4]oxadiazol-3-yl}-ethyl)-phenyl]-3-methyl-pyridin-2-ylamine] are 48 nM and 51 nM.
`CC(c1ccc(-c2cnc(N)nc2)cc1)(c1noc(N2CCN(CCO)CC2)n1)C1CC1` (stereo not drawn) [Example 252, 2-[4-(3-{1-[4-(2-Amino-pyrimidin-5-yl)-phenyl]-1-cyclopropyl-ethyl}-[1,2,4]oxadiazol-5-yl)-piperazin-1-yl]-ethanol]: the values for the IC50 in experiment [1] (setting [3]) and in experiment [2] were 15 nM and 220 nM, respectively.
Consider `CC(C)[C@@](C)(c1ccc(-c2cnc(N)nc2)cc1)c1noc(-c2cnn(C)c2)n1` (single isomer, unassigned) [Example 47], for which the values for the IC50 in experiment [1] and in experiment [2] were 7.7 nM and 360 nM, respectively.
`CC(C)C(C)(c1ccc(-c2cnc(N)nc2)cc1)c1noc(-c2c[nH]cn2)n1` (stereo not drawn) [Example 126, 5-(4-{2-[5-(1H-imidazol-4-yl)-1,2,4-oxadiazol-3-yl]-3-methylbutan-2-yl}phenyl)pyrimidin-2-amine]: the values for the IC50 in experiment [1] (setting [3]) and in experiment [2] were 4.6 nM and 260 nM, respectively.
For `CC(C)C(C)(c1ccc(-c2cnc(N)nc2)cc1)c1noc(N2CCN(C)C(=O)C2)n1` (stereo not drawn) [Example 202, 4-(3-{1-[4-(2-Amino-pyrimidin-5-yl)-phenyl]-1,2-dimethyl-propyl}-[1,2,4]oxadiazol-5-yl)-1-methyl-piperazin-2-one], the values for the IC50 in experiment [1] (setting [3]) and in experiment [2] were 46 nM and 350 nM, respectively.
In the case of `CCNc1nc(C(C)(c2ccc(-c3cnc(N)nc3)cc2)C(C)C)no1` (stereo not drawn) [Example 134, 5-(4-{2-[5-(ethylamino)-1,2,4-oxadiazol-3-yl]-3-methylbutan-2-yl}phenyl)pyrimidin-2-amine], the IC50 in experiment [1] (setting [3]) is 8.3 nM; in experiment [2], 190 nM.
The corresponding values for `Cc1nc(N)ccc1-c1ccc(C(C)(c2noc(-c3cnn(CC(=O)N(C)C)c3)n2)C2CC2)cc1` (stereo not drawn) [Example 244, 2-[4-(3-{1-[4-(6-Amino-2-methyl-pyridin-3-yl)-phenyl]-1-cyclopropyl-ethyl}-[1,2,4]oxadiazol-5-yl)-pyrazol-1-yl]-N,N-dimethyl-acetamide] are 25 nM and 270 nM.
`CC(C)C(C)(c1ccc(-c2cnc(N)nc2)cc1)c1noc(-c2cccc(=O)n2C)n1` (stereo not drawn) [Example 165, 6-(3-{2-[4-(2-aminopyrimidin-5-yl)phenyl]-3-methylbutan-2-yl}-1,2,4-oxadiazol-5-yl)-1-methylpyridin-2(1H)-one]: the IC50 in experiment [1] (setting [3]) came to 2.1 nM; in experiment [2] it was 89 nM.
The corresponding values for `CC(C)C(C)(c1ccc(-c2cnc(N)nc2)cc1)c1noc(N2CCN(CC(C)(C)O)CC2)n1` (stereo not drawn) [Example 211, 1-[4-(3-{1-[4-(2-Amino-pyrimidin-5-yl)-phenyl]-1,2-dimethyl-propyl}-[1,2,4]oxadiazol-5-yl)-piperazin-1-yl]-2-methyl-propan-2-ol] are 12 nM and 230 nM.
The corresponding values for `Cc1nc(N)nc(F)c1-c1ccc([C@](C)(c2noc(-c3cnn(CC(=O)N(C)C)c3)n2)C2CC2)cc1` [Example 298, 2-[4-(3-{(R)-1-[4-(2-Amino-4-fluoro-6-methyl-pyrimidin-5-yl)-phenyl]-1-cyclopropyl-ethyl}-[1,2,4]oxadiazol-5-yl)-pyrazol-1-yl]-N,N-dimethyl-acetamide] are 10 nM and 130 nM.
The matching figures for `CC(C)C(C)(c1ccc(-c2cnc(N)nc2)cc1)c1noc(C2CCCC(=O)N2)n1` (stereo not drawn) [Example 167, 6-(3-{2-[4-(2-aminopyrimidin-5-yl)phenyl]-3-methylbutan-2-yl}-1,2,4-oxadiazol-5-yl)piperidin-2-one]: 46 nM and 4300 nM.
As for `CC(C)[C@](C)(c1ccc(-c2cnc(N)nc2)cc1)c1noc(-c2cn[nH]c2)n1` [Example 77, 5-(4-{(2R)-3-methyl-2-[5-(1H-pyrazol-4-yl)-1,2,4-oxadiazol-3-yl]butan-2-yl}phenyl)pyrimidin-2-amine], the IC50 in experiment [1] (setting [3]) was 1.7 nM; in experiment [2], 36 nM.
On to `CC(c1ccc(-c2cnc(N)nc2)cc1)(c1noc(-c2cn[nH]c2)n1)C1CC1` (stereo not drawn) [Example 21, 5-(4-{1-cyclopropyl-1-[5-(1H-pyrazol-4-yl)-1,2,4-oxadiazol-3-yl]ethyl}phenyl)pyrimidin-2-amine], for which the IC50 in experiment [1] (setting [3]) is 5.5 nM; in experiment [2], 87 nM.
The matching figures for `CN(C)C(=O)Cn1cc(-c2nc([C@@](C)(c3ccc(-c4cnc(N)nc4F)cc3)C3CC3)no2)cn1` [Example 293, 2-[4-(3-{(R)-1-[4-(2-Amino-4-fluoro-pyrimidin-5-yl)-phenyl]-1-cyclopropyl-ethyl}-[1,2,4]oxadiazol-5-yl)-pyrazol-1-yl]-N,N-dimethyl-acetamide]: 3.5 nM and 110 nM.
